From patent publication US10533207B2, “Bioactivity testing structure for single cell tracking using gelling agents” (QuantaMatrix Inc., priority 2014, dated 2020) come the findings set out here.

Assay type in all cases: cell-based
Test [1] concerns ESBL positive E. coli (ATCC 25922). In words: AST on the DAC system at various inoculum concentrations. The conditions noted are these: unit inferred. The source says: (§1) The first reason is that large inoculum amounts of antibiotic degrading proteins derived from bacteria may destroy antibiotics and result in an increase in MIC value. The other reason is that larger inoculum amounts of […] bacteria may decrease the number of antibiotic molecules relative to single cells of bacteria and result in an increase in MIC. To verify the reasons for the absence of inoculum effect in the DAC system, ESBL negative E. coli (ATCC 35218), ESBL positive E. coli (ATCC 25922), and clinically obtained E. coli strains, which are well known as a bacterial strain secreting antibiotic-degrading proteins, were tested at inoculum concentrations of 5×10^7, 5×10^6, and 5×10^5 CFU/ml. These concentrations indicate the concentrations of the bacteria in agarose for the DAC system and in liquid for the MDT system.

Test [2] deals with clinically obtained E. coli strain #5. Described as above. Particulars: #5 strain, unit inferred.
Source text: as §1

Test [3] has as its system ESBL negative E. coli (ATCC 35218). The test is described as above. Particulars: unit inferred.
Source text: as §1

In test [4] the test system is ESBL positive E. coli (ATCC 25922). In words: AST on the MDT system (broth microdilution) at various inoculum concentrations. The protocol: (§2) The MIC of cefepime against E. coli was determined according to the standard CLSI guideline except for the concentration of bacteria. 16 h after culture at 37° C., broth microdilution wells were examined.
as §1
In general terms: Dilution methods test growth across graded concentrations, often in twofold steps.

Test [5] relates to clinically obtained E. coli strain #5. Described as above. The conditions noted are these: #5 strain. As for the experimental part: as §2, §1
The test system of test [6] is ESBL negative E. coli (ATCC 35218). The test is described as above. As for the experimental part:
as §2, §1

Test [7] relates to ESBL positive E. coli strains. In words: Residual efficacy of antibiotic solution after overnight culture, re-tested by MDT. The conditions noted are these: Escherichia coli. As for the experimental part: At each time point, the culture media were filtered to remove the cells and then added to different DST sets to measure the residual efficacies of the antibiotics. Both broth […] and DAC protocol were performed in the same manner as described above.
The present inventors hypothesized that the reason why the absence of inoculum effect in the DAC system may be because proteins released from bacteria are trapped by agarose and cannot degrade the antibiotic, unlike under broth culture conditions. […] These concentrations indicate the concentrations of the bacteria in […] for the DAC system and in liquid for the MDT system.
Thus, the final concentrations of the bacteria in the DAC and […] systems were the same. Cefepime was used in these tests. After culture overnight, the antibiotic solutions in the wells of the DAC and MDT systems was extracted and filtered to obtain the pure antibiotic. MDT using ESBL positive E. coli strains was conducted using the antibiotic.

Where [8] appears, read: inoculum 5*10^5 CFU/ml in agarose.
The mark [9] stands for this setting: inoculum 5*10^6 CFU/ml in agarose.
The mark [10] stands for this setting: inoculum 5*10^7 CFU/ml in agarose.
The mark [11] stands for this setting: inoculum 5*10^5 CFU/ml in liquid, unit not given.
Setting [12] is: inoculum 5*10^6 CFU/ml in liquid, unit inferred.
[13] abbreviates: inoculum 5*10^7 CFU/ml in liquid, unit inferred.

≈ marks a conversion by molar mass, not a printed value.

As for `CO/N=C(\C(=O)N[C@@H]1C(=O)N2C(C(=O)[O-])=C(C[N+]3(C)CCCC3)CS[C@H]12)c1csc(N)n1` [Cefepime], the MIC (AST result, DAC) in test [1] (setting [8]) was 0.03 µg/mL (≈ 0.0624 µM); in test [1] (setting [9]), 0.03 µg/mL (≈ 0.0624 µM); in test [1] (setting [10]), 0.03 µg/mL (≈ 0.0624 µM); in test [2] (setting [8]), less than 16 µg/mL; in test [2] (setting [9]) it was less than 16 µg/mL; in test [2] (setting [10]), less than 16 µg/mL. For the same molecule, the MIC (AST result, DAC) in test [3] (setting [8]), in test [3] (setting [9]) and in test [3] (setting [10]) was 0.06 µg/mL (≈ 0.125 µM) in each case. In addition, the “MIC (AST result, MDT)” value in test [4] (setting [11]) is “All growth”; in test [4] (setting [12]) it was 4 µg/mL (≈ 8.32 µM); in test [4] (setting [13]), 0.03 µg/mL (≈ 0.0624 µM); in test [5] (setting [11]) it was “All growth”; in test [5] (setting [12]) it was 64 µg/mL (≈ 133 µM); in test [5] (setting [13]), 16 µg/mL (≈ 33.3 µM). Besides, the “MIC (AST result, MDT)” value in test [6] (setting [11]) is “All growth”; in test [6] (setting [12]), 0.03 µg/mL (≈ 0.0624 µM); in test [6] (setting [13]) it was 0.03 µg/mL (≈ 0.0624 µM). Further, the MIC (as a rule, the smallest concentration in the dilution series that meets the test's criterion for growth inhibition) in test [7] (antibiotic solution recovered from DAC wells after overnight culture with 5*10^5 CFU/ml ESBL positive E. coli) is 0.06 µg/mL (≈ 0.125 µM); in test [7] (antibiotic solution recovered from DAC wells after overnight culture with 5*10^6 CFU/ml ESBL positive E. coli) it was 0.06 µg/mL (≈ 0.125 µM); in test [7] (antibiotic solution recovered from DAC wells after overnight culture with 5*10^7 CFU/ml ESBL positive E. coli), 0.06 µg/mL (≈ 0.125 µM); in test [7] (antibiotic solution recovered from MDT wells after overnight culture with 5*10^5 CFU/ml ESBL positive E. coli), 0.03 µg/mL (≈ 0.0624 µM); in test [7] (antibiotic solution recovered from MDT wells after overnight culture with 5*10^6 CFU/ml ESBL positive E. coli) it was 0.125 µg/mL (≈ 0.26 µM); in test [7] (antibiotic solution recovered from MDT wells after overnight culture with 5*10^7 CFU/ml ESBL positive E. coli), 0.25 µg/mL (≈ 0.52 µM).
